According to ChEMBL document CHEMBL1201862, “PubChem BioAssay data set” (2004):
Calls of active or inactive are those of the source.

Legend:
BJ [1] = assay: cells; type: functional, cell-based; settings: Homo sapiens
[2] = A549 cell cytotoxicity, dose response, cytotoxicity control, plate reader, cherry-pick, antagonist series (AID 743412); type: functional, cell-based
[3] = molecular target: Beta-2 adrenergic receptor (Homo sapiens, UniProt P07550); assay: ADRB2 activation measured by internalization – cell-based, FAP fluorogen, flow cytometry, cherry pick 1, dose response (AID 588763); type: functional
Chain of Beta-2 adrenergic receptor (P07550 whole entry): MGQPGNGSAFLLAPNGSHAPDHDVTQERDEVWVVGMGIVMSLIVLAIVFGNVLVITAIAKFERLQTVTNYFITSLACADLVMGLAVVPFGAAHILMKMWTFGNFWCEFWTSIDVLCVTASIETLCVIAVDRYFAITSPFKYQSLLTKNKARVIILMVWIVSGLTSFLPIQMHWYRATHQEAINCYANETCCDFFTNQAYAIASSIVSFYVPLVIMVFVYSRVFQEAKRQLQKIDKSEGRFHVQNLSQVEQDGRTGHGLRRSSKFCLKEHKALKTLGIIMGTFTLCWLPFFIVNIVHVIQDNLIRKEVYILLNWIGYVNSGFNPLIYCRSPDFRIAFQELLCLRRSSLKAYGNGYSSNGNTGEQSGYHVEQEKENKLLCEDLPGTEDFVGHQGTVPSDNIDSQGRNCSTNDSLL

[4] = molecular target: T1, Microphthalmia-associated transcription factor (Homo sapiens, UniProt O75030); assay: reducers of TRPM1 reporter luminescence, concentration series – cell-based, SK-MEL-5, cherry-picked, set 3, MITF inhibitor project, dose response (AID 493073); type: functional;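 note: SK-MEL-5 melanoma cells with luciferase driven by the MITF target TRPM1 promoter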
T1 sequence (O75030 whole entry): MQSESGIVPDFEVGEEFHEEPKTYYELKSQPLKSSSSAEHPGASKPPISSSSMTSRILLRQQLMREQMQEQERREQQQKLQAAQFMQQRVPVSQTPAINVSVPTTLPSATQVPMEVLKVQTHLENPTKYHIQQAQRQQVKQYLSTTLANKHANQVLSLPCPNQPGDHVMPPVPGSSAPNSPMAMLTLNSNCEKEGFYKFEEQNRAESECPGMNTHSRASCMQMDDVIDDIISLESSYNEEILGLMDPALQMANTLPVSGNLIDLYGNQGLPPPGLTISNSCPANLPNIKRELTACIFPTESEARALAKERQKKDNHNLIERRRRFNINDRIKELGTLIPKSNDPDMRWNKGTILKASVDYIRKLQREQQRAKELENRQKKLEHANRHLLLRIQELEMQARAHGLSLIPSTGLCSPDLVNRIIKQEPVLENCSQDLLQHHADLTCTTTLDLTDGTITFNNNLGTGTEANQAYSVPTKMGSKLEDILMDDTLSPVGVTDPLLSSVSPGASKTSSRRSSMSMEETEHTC

[5] = blockers of bursicon-stimulated LGR2 cAMP reporter – cell-based, HEK293, CRE-luciferase reporter, cherry pick, set 2, dose response (AID 743343); type: functional;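 note: transfected cells were stimulated with diluted bursicon conditioned medium after compound addition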
BJ [6] = assay: BJ-TERT-LT-ST fibroblast viability loss – cell-based, RAS-independent, luminescence, dose response (AID 1935); type: functional; settings: Homo sapiens;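 note: BJ fibroblasts immortalized with TERT plus LT and ST oncogenes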
BJ [7] = assay: BJ-TERT fibroblast viability loss – cell-based, RAS-independent, luminescence, dose response (AID 1933); type: functional; settings: Homo sapiens
[8] = Trypanosoma cruzi growth suppression in host cells – NIH3T3 host cells, beta-gal luminescence, confirmation (AID 2044); type: functional, cell-based;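 note: intracellular parasites grown in NIH/3T3 mouse fibroblasts as host cells; luminescent beta-galactosidase reporter signal from transgenic T. cruzi replicating inside host cells; inhibitors lower the luminescence signal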
[9] = DRD fibroblast viability loss – cell-based, non-viral oncogenic, luminescence, dose response (AID 1934); type: functional; settings: Homo sapiens
[10] = blockade of melanocortin 4 receptor signaling – cell-based, plate reader, cherry pick, counter-screen for LGR2 antagonist project, dose response (AID 743444); type: functional;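 note: transfected HEK 293 cells stimulated with alpha-MSH peptide; potency of inhibitors of the alpha-MSH evoked signal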
[11] = viability of uninfected HEp-2 cells – cell-based, HTS, cytotoxicity control for RSV inhibitor project, dose response (AID 2410); type: functional; settings: human respiratory syncytial virus
Cytochrome P450 2C9 = Cytochrome P450 2C9 (Homo sapiens, UniProt P11712)
Chain of Cytochrome P450 2C9 (P11712 whole entry): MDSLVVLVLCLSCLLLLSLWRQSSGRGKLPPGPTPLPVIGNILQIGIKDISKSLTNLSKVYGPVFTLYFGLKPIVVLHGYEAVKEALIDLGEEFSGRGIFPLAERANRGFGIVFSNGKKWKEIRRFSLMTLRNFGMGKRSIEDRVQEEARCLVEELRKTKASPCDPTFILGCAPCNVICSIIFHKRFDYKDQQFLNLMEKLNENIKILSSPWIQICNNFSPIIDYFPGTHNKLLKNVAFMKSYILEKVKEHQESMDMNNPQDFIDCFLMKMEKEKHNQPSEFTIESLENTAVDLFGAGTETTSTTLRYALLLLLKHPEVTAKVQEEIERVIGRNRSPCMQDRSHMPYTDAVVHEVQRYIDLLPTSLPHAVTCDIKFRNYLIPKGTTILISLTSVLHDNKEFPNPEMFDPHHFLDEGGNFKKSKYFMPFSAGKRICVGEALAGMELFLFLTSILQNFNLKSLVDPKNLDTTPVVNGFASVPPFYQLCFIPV

Cytochrome P450 2C19 = Cytochrome P450 2C19 (Homo sapiens, UniProt P33261); assay: Cytochrome panel assay with activity outcomes. Panel member name: p450-cyp2c19 Compounds with AC50 equal or less than 10 uM are considered active; type: functional
Chain of Cytochrome P450 2C19 (P33261 whole entry, the tested form may be a part): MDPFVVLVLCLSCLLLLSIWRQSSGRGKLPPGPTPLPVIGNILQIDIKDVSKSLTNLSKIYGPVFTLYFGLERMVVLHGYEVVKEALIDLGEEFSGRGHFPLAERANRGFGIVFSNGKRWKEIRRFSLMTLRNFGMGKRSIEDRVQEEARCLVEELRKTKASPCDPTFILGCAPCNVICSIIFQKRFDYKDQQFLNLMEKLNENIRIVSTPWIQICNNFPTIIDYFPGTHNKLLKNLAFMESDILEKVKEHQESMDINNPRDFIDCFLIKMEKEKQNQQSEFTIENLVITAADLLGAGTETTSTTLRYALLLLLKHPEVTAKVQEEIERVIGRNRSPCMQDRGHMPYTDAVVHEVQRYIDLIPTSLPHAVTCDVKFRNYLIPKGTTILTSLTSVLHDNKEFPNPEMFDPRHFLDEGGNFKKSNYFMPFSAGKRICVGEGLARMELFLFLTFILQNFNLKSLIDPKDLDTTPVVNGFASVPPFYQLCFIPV

[12] = molecular target: T2, Carboxy-terminal domain RNA polymerase II polypeptide A small phosphatase 1 (Homo sapiens, UniProt Q9GZU7); assay: CTDSP1 inhibitors, concentration-response, biochemical, absorbance readout, ultra-high-throughput screen actives (AID 540297); type: functional
T2 sequence (Q9GZU7 whole entry): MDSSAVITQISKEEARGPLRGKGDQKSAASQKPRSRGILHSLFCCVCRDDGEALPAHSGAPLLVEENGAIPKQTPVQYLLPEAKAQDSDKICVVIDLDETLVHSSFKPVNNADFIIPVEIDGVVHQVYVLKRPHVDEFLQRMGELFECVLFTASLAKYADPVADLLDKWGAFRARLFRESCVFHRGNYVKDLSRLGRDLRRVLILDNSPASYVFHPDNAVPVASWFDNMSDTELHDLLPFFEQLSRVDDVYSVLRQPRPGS

[13] = molecular target: T3, Short transient receptor potential channel 4 (Mus musculus, UniProt Q9QUQ5); assay: calcium entry via TRPC4 opening agents – cell-based, HEK293 TRPC4/mu-opioid, Fluo-4 calcium, dose response (AID 434937); type: functional
T3 sequence (Q9QUQ5 whole entry): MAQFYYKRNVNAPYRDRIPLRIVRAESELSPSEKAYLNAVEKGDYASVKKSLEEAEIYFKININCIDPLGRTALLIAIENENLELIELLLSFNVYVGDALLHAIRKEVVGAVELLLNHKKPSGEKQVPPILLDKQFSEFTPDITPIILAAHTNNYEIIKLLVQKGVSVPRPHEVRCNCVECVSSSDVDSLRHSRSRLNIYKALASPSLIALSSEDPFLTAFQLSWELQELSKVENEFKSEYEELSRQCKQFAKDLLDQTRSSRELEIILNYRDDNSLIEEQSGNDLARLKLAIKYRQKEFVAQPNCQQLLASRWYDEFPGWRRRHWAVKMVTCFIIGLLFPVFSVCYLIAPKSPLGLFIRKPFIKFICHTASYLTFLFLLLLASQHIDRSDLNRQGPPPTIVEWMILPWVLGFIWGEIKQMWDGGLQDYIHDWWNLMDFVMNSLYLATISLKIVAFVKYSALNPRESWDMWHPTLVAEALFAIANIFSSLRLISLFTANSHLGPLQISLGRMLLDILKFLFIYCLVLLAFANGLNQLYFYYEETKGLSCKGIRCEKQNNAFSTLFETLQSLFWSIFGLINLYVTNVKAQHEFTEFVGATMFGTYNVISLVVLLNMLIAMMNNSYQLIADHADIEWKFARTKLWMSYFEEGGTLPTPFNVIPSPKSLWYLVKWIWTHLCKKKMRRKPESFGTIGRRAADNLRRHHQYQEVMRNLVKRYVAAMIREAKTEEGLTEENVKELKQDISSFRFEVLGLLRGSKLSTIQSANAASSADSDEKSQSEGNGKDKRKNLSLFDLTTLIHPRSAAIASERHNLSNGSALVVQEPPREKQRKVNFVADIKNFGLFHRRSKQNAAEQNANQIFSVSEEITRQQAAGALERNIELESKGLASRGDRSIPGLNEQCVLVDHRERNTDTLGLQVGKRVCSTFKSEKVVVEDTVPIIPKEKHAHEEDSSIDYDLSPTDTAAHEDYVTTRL

X-box-binding protein 1 = molecular target: T4, X-box-binding protein 1 (Homo sapiens, UniProt P17861); type: functional, Cricetulus griseus;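 note: confirmatory dose-response counter-screen serving a CHOP assay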
T4 sequence (P17861 whole entry): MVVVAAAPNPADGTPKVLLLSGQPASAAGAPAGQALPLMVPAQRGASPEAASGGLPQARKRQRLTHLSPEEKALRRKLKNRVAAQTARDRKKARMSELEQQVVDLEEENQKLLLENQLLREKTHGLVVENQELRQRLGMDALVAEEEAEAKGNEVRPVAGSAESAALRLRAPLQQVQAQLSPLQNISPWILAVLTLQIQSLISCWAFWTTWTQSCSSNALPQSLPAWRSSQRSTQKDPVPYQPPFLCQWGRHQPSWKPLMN

cells = type: functional
[14] = THP-1 cell cytotoxicity, dose response, cytotoxicity control for non-replicating M. tuberculosis project (AID 489025); type: functional
BJ [15] = assay: growth inhibition of engineered Ras-driven BJ cells – cell-based, alamar blue fluorescence, cherrypicked samples, dose response (AID 2631); type: functional; settings: Homo sapiens;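 note: confirmatory dose-response assay in RAS-dependent BJ fibroblasts engineered with TERT, LT and ST, with cytotoxicity read by fluorescence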
HEK293 [16] = assay: cells; type: functional, cell-based; settings: Homo sapiens
HEK293 [17] = assay: cells; type: functional, cell-based; settings: Homo sapiens; remark: listed apart in the source
HEK293 [18] = assay: NOD2 signaling inhibitors in MDP-stimulated cells, cell-based, uHTS, luminescence (AID 2001); type: functional; settings: Homo sapiens
HEK293 [19] = assay: inhibition of NOD1-driven NF-kB reporter – cell-based, luminescence, uHTS, primary screen (AID 1578); type: functional; settings: Homo sapiens
[20] = NIH3T3 cell viability loss – ATP luminescence, mouse fibroblasts, counter-screen, dose response (AID 2010); type: functional, cell-based;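 note: cells exposed to compound for about 90 hours before reading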
[21] = molecular target: Nucleotide-binding oligomerization domain-containing protein 2 (Homo sapiens, UniProt Q9HC29); assay: inhibition of NOD2-driven NF-kB reporter – cell-based, luminescence, uHTS, HEK293 (AID 1566); type: functional
Chain of Nucleotide-binding oligomerization domain-containing protein 2 (Q9HC29 whole entry, the tested form may be a part): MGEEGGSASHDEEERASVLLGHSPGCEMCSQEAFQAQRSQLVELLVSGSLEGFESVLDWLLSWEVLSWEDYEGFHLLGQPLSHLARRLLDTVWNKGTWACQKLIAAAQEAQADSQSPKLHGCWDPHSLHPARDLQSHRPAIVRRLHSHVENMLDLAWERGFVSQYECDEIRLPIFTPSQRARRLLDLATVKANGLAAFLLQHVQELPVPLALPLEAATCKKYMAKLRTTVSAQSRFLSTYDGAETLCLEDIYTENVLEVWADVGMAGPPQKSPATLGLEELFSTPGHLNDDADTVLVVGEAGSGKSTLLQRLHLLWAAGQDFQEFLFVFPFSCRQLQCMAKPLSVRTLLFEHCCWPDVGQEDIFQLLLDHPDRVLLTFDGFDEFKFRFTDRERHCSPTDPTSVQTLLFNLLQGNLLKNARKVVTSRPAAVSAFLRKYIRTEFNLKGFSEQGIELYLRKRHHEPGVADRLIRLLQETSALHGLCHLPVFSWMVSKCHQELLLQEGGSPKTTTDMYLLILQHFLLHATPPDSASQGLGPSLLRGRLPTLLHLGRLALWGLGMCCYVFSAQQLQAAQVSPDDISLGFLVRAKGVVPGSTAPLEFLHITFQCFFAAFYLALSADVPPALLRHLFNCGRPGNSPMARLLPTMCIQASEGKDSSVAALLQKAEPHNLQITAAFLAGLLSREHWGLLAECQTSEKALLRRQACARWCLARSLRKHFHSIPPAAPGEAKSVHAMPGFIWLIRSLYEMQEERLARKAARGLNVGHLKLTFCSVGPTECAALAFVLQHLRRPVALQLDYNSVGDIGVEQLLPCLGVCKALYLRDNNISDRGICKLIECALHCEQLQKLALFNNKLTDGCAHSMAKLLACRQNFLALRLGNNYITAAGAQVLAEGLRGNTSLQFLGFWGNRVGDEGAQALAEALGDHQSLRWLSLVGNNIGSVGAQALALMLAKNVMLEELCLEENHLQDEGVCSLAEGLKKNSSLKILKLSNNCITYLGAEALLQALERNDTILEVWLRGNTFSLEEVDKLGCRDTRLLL

Cytochrome P450 2D6 = Cytochrome P450 2D6 (Homo sapiens, UniProt P10635);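 note: CYP2D6 member of a cytochrome P450 panel assay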
Chain of Cytochrome P450 2D6 (P10635 whole entry): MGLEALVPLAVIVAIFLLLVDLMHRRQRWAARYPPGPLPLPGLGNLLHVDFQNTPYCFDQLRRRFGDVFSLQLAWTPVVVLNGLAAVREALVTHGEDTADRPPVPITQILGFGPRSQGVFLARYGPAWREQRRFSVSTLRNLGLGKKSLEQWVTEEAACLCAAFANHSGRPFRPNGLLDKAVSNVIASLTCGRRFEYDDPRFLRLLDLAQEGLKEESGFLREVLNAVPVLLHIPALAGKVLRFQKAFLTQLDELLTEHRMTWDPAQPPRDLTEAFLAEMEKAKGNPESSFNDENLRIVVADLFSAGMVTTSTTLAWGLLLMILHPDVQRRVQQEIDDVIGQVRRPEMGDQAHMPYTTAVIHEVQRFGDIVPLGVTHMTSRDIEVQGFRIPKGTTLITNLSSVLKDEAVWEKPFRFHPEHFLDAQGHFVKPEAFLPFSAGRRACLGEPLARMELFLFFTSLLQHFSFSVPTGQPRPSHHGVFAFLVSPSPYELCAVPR

Cytochrome P450 1A2 = molecular target: T5, Cytochrome P450 1A2 (Homo sapiens, UniProt P05177);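 note: PubChem cytochrome P450 panel assay, CYP1A2 panel member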
T5 sequence (P05177 whole entry): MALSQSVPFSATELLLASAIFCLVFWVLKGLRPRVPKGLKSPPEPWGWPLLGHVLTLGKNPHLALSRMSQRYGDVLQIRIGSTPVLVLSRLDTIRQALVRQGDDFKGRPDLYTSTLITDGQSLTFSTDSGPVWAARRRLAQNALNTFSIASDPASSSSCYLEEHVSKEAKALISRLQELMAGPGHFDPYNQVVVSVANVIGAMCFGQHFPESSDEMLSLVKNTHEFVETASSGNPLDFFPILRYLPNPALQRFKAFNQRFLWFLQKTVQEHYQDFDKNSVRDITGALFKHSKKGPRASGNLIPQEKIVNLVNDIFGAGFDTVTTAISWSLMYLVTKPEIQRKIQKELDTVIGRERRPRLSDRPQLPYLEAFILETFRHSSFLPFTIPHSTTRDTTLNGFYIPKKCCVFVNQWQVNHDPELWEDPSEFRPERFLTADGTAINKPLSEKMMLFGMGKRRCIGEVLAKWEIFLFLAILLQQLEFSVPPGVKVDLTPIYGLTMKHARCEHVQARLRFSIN

HeLa = assay: ATP-based viability loss in HeLa cells – cell-based, CellTiter-Glo luminescence, cherry-pick samples, cytotoxicity control for MITF activator project, dose response (AID 540259); type: functional; settings: Homo sapiens

## O=C(COC(=O)c1ccccc1C(=O)c1ccc(Cl)c([N+](=O)[O-])c1)NC1CC1
BJ [1]
  EC50: 6.82 µM (inconclusive)
[2]
  AC50: 7.05 µM (active)
[3]
  EC50: 13.3 µM (inactive)
[4]
  AC50: 8.92 µM (active)
[5]
  AC50: 11.8 µM (active)
BJ [6]
  EC50: 92.6 µM (inconclusive)
BJ [7]
  EC50: 5.11 µM (active)
[8]
  EC50: 3.79 µM (active)
[9]
  EC50: 10.1 µM (inconclusive)
[10]
  AC50: 15.4 µM (active)
[11]
  CC50: 10.2 µM (active)

## CCCC12CN3CC(CCC)(CN(C1)C3C(O)C(O)C(O)CO)C2=O (stereo not given)
Cytochrome P450 2C9
  AC50: inconclusive
Cytochrome P450 2C19
  AC50: inconclusive

## CCc1ccc(Nc2nnc(SCC(=O)NC(=O)CN3CCCC3=O)s2)cc1
[12]
  IC50: 15 µM (active)

## CCC(=O)N1CCc2cc(Br)cc(S(=O)(=O)N(C)c3ccc(OC)cc3)c21
[3]
  EC50: 0.0271 µM (active)

## CN(CCc1nc2cc(Cl)ccc2[nH]1)Cc1nc(CC2CC2)no1
[13]
  EC50: 5.31 µM (active)

## Fc1ccc(-c2nn(-c3ccccc3)cc2CNCc2ccccc2)cc1
X-box-binding protein 1
  Absolute IC50 (XBP1): 10 µM
cells
  IC50: 21.6 µM (active)
[13]
  EC50: 5.31 µM (active)
[14]
  CC50: 26 µM (active)
[11]
  CC50: 17.9 µM (active)

## CCNc1nc(NCC)n2c(SCC(=O)Nc3ccc(OC(F)F)cc3)nnc2n1
[12]
  IC50: 9.83 µM (active)

## CCc1ccc(NC(=O)[C@H](Cc2c[nH]c3ccccc23)NC(=O)[C@@H]2Cc3ccccc3CN2)cc1
BJ [1]
  EC50: 10.8 µM (active)
BJ [15]
  EC50: > 133 µM (inactive)
BJ [6]
  EC50: > 150 µM (not active)
BJ [7]
  EC50: > 150 µM (not active)
[9]
  EC50: > 150 µM (inconclusive)

## CC1(C)Cc2c(c(-c3ccco3)nc3sc4c(NCC5CCCO5)ncnc4c23)CO1 (stereo not given)
[3]
  EC50: 0.0919 µM (active)

## CCc1ccccc1N=C(S)NCc1ccc2c(c1)OCO2
Cytochrome P450 2C9
  AC50: inconclusive

## Cc1cc(NC(=O)CN2CCc3ccccc3C2)nc2c1c(=O)oc1ccccc12
[13]
  EC50: 1.19 µM (active)

## COc1cc(OC)c(OC)cc1/C=C1\CCC/C(=C\c2cc(OC)c(OC)cc2OC)C1=O
HEK293 [16]
  IC50: 5.03 µM (active)
HEK293 [17]
  IC50: 18.1 µM (active)
HEK293 [18]
  IC50: 6.27 µM (active)
[8]
  EC50: 1.51 µM (active)
HEK293 [19]
  EC50: 15.5 µM (active)
[20]
  EC50: 6.67 µM (active)
[21]
  EC50: 13 µM (active)

## CCc1cccc(CC)c1N=C(S)NCC(c1cccnc1)N(C)C (stereo not given)
[13]
  EC50: 0.168 µM (active)

## COCCn1c(=O)c(C)nc2cnc(N3CCN(C)CC3)nc21
Cytochrome P450 2C9
  AC50: inconclusive

## O=S(=O)(c1ccc(Cl)cc1)N1CCN2CCCC2C1 (stereo not given)
[13]
  EC50: 4.73 µM (active)

## O=[N+]([O-])c1ccc(Cl)c(/C=N/N2CCN(Cc3ccccc3Cl)CC2)c1
Cytochrome P450 2D6
  AC50: 7.94 µM (inconclusive)
Cytochrome P450 2C9
  AC50: inconclusive
Cytochrome P450 1A2
  AC50: 2.51 µM (inconclusive)

## CCCc1ccc(OCc2nc(-c3ccc(NC(=O)c4cccs4)cc3)no2)cc1
[3]
  EC50: 0.539 µM (active)
HeLa
  AC50: 49.1 µM (active)
